Data on 36 molecules can be found in a melting point compilation (Tetko et al.; mined from patent text by program, amines drawn as free bases though some values may be those of a salt).

In general, melting point refers to the temperature, or range, at which the solid turns liquid. In turn, `CSc1ccc(-c2coc3ccc(C(=O)NN)cc23)cc1Cl` showed a melting point of 207 to 208 °C.
As for `CCOCc1nc2c(N)nc3ccccc3c2n1CCCCC(N)=O`, the melting point was in the range of 198 to 200 °C.
The molecule `Cn1cccc1C(N)=S` gave a melting point of 87 to 88 °C.
The molecule `COc1ccc(Cn2c(=O)[nH]c3nccnc3c2=O)cc1` showed a melting point of 233 to 234 °C.
Consider `CC(C)(C)Nc1c(NCc2cccc(C(F)(F)F)c2)c(=O)c1=O`, for which the melting point is 237 to 239 °C.
Consider `COc1ccc(C(=O)C(CC(=O)N[C@@H](Cc2ccccc2)C(=O)O)SC(C)=O)cc1F` (stereo partly specified), for which the melting point fell in the range of 140 to 146 °C.
On to `O=C(O)C(O)(CSc1ccccc1)C(F)(F)F` (stereo unspecified), for which the melting point is 83 to 84 °C.
`O=c1[nH]c2cc(F)c(F)cc2c(=O)n1OCc1ccccc1` had a melting point of more than 250 °C.
Then `O=C(O)Cn1c(=O)c(=O)[nH]c2ccc(Cl)cc21`, with more than 285 °C; and `COc1ccc(/C=C/C(=O)C2C(=O)CC(c3ccc(OC)cc3)C([N+](=O)[O-])C2c2ccco2)cc1` (stereo unspecified), with 192 °C; and `O=S(CCCCOc1ccc(C2=C(c3ccccc3)CCCc3cc(O)ccc32)cc1)Cc1ccccn1` (stereo unspecified), with 162 °C.
Then `Cc1cc2c(c(C)c1N)C(c1ccc(C(C)C)cc1)C(C)(C)O2` (stereo unspecified), with 98 to 100 °C; and `Cc1c(SCCCSc2nc3ccccc3[nH]2)ccnc1CSc1ccncc1`, with 128 to 129 °C; and `CCOC(=O)NC(=S)NCCOCC1=C(C(=O)OCC)C(c2cccc(Cl)c2Cl)C(C(=O)OC)=C(C)N1` (stereo unspecified), with 144 °C.
On to `COc1c(Cl)ccc(-c2cc(N)c(Cl)c(C(=O)NOC(C)(C)C)n2)c1F`, for which the melting point lay in the range of 184 to 187 °C.
`N=c1sc2cc(OC(F)(F)F)ccc2n1CC(N)=O` yielded a melting point of 228 °C.
With `CCNC(=O)NNC=NC(=O)c1nc(Cl)c(NC(C)C)nc1N`, the melting point lay in the range of 148 to 150 °C.
On to `O=c1ccc(C(F)(F)F)cn1Cc1ccccc1NCCO`, for which the melting point is 114 to 115 °C.
As for `CC(C)(C)CC(SC1CCCCC1)c1c(O)cc(-c2ccccc2)oc1=O` (stereo unspecified), the figure is more than 225 °C; as for `O=C(CCC(=O)N1CCC(c2ccc(Cl)cc2)CC1)c1ccc2c(c1)CCN(C(=O)C(F)(F)F)CC2`, 131 to 132 °C.
With `CC(Cc1c[nH]c2ccccc12)NC1CCC(c2ccccc2)(N(C)C)CC1` (stereo unspecified), the melting point lay in the range of 155 to 162 °C.
As for `CCC(C)(C)Nc1c(NCc2cccc(Cl)c2Cl)c(=O)c1=O`, the figure is 222 to 223 °C.
As for `CNC(=S)NCCCSc1nnnn1C`, the melting point was 99 to 101 °C.
In the case of `O=C1C2=C(SCCO2)C(O)N1c1ccc(Cl)cn1` (stereo unspecified), the melting point is 202 °C.
As for `Cc1cc(C)cc(C(=O)c2c(C(C)C)c(=O)[nH]c(=O)n2Cc2cc(F)nc(F)c2)c1`, the figure is 185 to 187 °C; as for `COc1cccc2c1CC(C(=O)O)N2S(=O)(=O)c1ccc(-c2ccc(F)cc2Cl)cc1` (stereo unspecified), 137 to 138 °C; as for `Cc1nccn1CCCNC(=O)c1cccc2oc(-c3ccccc3)nc12`, 145 to 148 °C.
`Cc1ccc(C(=O)NC(NC(=O)Nc2cccnc2)C(Cl)(Cl)Cl)cc1` (stereo unspecified) displayed a melting point of 162 to 163 °C.
Consider `Cc1ccc(Sc2ccccc2C(=O)O)c([N+](=O)[O-])c1`, for which the melting point was in the range of 189 to 191 °C.
As for `CCOCc1nc2c(N)nc3ccccc3c2n1CC1(NC(C)=O)CCCCC1`, the figure is 178 to 180 °C.
With `CC(=O)N1CC(C)(C)c2cc3[nH]nnc3cc21`, the melting point lay within 281 to 283 °C.
Regarding `O=C(O)C=CC(F)(F)F`, the melting point lay within 95 to 100 °C.
`CC(=O)C=Cc1c(C)c(C)c(C)c2c1OC(C)(C)C2`: the melting point worked out at 125 °C.
Consider `COc1ccc(C(=O)C(CC(=O)O)c2ccccc2)cc1` (stereo unspecified), for which the melting point lay in the range of 157 to 159 °C.
Regarding `O=S1(=O)c2ccccc2-c2nc3ccccc3c(Cl)c21`, the melting point is 266 to 269 °C.
In turn, `CC(C)(Oc1ccc(OCc2noc(-c3ccc(C(C)(C)C)cc3)n2)cc1)C(=O)O` displayed a melting point of 143 °C.
